Assay results taken from the supplement of paper PMC13380429.

How the values were obtained:
[1] = tested on: A549-ACE2 infected with SARS-CoV-2; assay: morphology score (similarity to uninfected cells); higher = more like uninfected cells; conditions: 24 h
Vero E6 [2] = assay: relative viability EC50 (midpoint between 100% and the lowest measured viability); higher = less toxic; conditions: 72 h
Calu-3 [3] = assay: as above; conditions: 72 h
HepG2 [4] = assay: as above; conditions: 72 h
U2OS [5] = assay: as above; conditions: 72 h
Caco-2 [6] = assay: as above; conditions: 72 h
[7] = tested on: A549-ACE2 infected with SARS-CoV-2; assay: cell count relative to DMSO; higher = less toxic; conditions: 24 h
[8] = tested on: A549-ACE2 infected with SARS-CoV-2; assay: SARS-CoV-2 infection rate relative to DMSO; higher = more infection; conditions: 24 h
Vero E6 [9] = assay: cell viability relative to DMSO; higher = less toxic; conditions: 72 h
Calu-3 [10] = assay: as above; conditions: 72 h
HepG2 [11] = assay: as above; conditions: 72 h
U2OS [12] = assay: as above; conditions: 72 h
Caco-2 [13] = assay: as above; conditions: 72 h
A549-ACE2 = assay: drug-induced phospholipidosis relative to tamoxifen; higher = more phospholipidosis
Vero E6 [14] = assay: drug sensitivity score (DSS) for viability; higher = more toxic; extreme values may be limits of the assay; conditions: 72 h
Calu-3 [15] = assay: as above; conditions: 72 h
HepG2 [16] = assay: as above; conditions: 72 h
U2OS [17] = assay: as above; conditions: 72 h
Caco-2 [18] = assay: as above; conditions: 72 h

Clc1ccc(N/N=C(\c2ccccc2)c2ccccn2)nc1 [JIB04]
Conditions	SARS-CoV-2 infection rate, [8] [%]	cell count, [7] [%]	cell viability, Caco-2 [13] [%]	cell viability, Calu-3 [10] [%]	cell viability, HepG2 [11] [%]	cell viability, U2OS [12] [%]	cell viability, Vero E6 [9] [%]	morphology score, [1]
1 nM	–	–	89.4	101	92.7	102	91.7	–
10 nM	–	–	94.1	108	87.8	97.9	102	–
100 nM	–	–	33.7	102	19.8	95.6	89.4	–
0.3 µM	104	99	–	–	–	–	–	-0.14
1000 nM	–	–	11.2	14.7	6.2	34.3	53.7	–
3 µM	82	96	–	–	–	–	–	0.28
10 µM	36	88	–	–	–	–	–	0.37
10000 nM	–	–	34.7	18.8	21.6	6.9	6.4	–
30 µM	50	54	–	–	–	–	–	0.36

Conditions	drug sensitivity score	relative viability EC50 [µM]
Caco-2 [6]	–	0.0502
Caco-2 [18]	24.6	–
Calu-3 [3]	–	0.327
Calu-3 [15]	15.3	–
HepG2 [4]	–	0.0327
HepG2 [16]	28.1	–
U2OS [5]	–	0.595
U2OS [17]	13.2	–
Vero E6 [2]	–	0.943
Vero E6 [14]	10.7	–

A549-ACE2
Conditions	drug-induced phospholipidosis [%]
0.3 µM, 24 h	4.18
0.3 µM, 48 h	6.34
0.3 µM, 72 h	8.31
0.833333 µM, 24 h	-0.88
3.33333 µM, 24 h	-2.31
6.66667 µM, 24 h	22.5
10 µM, 24 h	26.1
30 µM, 24 h	2.4

CCN(CC)CCOc1ccc2c(c1)C(=O)c1cc(OCCN(CC)CC)ccc1-2 [tilorone]
Conditions	SARS-CoV-2 infection rate, [8] [%]	cell count, [7] [%]	cell viability, Caco-2 [13] [%]	cell viability, Calu-3 [10] [%]	cell viability, HepG2 [11] [%]	cell viability, U2OS [12] [%]	cell viability, Vero E6 [9] [%]	morphology score, [1]
1 nM	–	–	102	103	98.4	103	106	–
10 nM	–	–	102	101	93.2	104	104	–
0.1 µM	88	102	–	–	–	–	–	0.26
100 nM	–	–	97.1	95.7	91.3	100	97.5	–
0.3 µM	84	106	–	–	–	–	–	0.37
1 µM	77	102	–	–	–	–	–	0.45
1000 nM	–	–	95	96.6	96.8	95.9	100	–
3 µM	46	108	–	–	–	–	–	0.5
10000 nM	–	–	78.4	78.8	15.8	98.9	35.2	–

Conditions	drug sensitivity score	relative viability EC50 [µM]
Caco-2 [6]	–	> 10
Caco-2 [18]	1.3	–
Calu-3 [3]	–	> 10
Calu-3 [15]	1.2	–
HepG2 [4]	–	2.87
HepG2 [16]	5.1	–
U2OS [5]	–	> 10
U2OS [17]	0	–
Vero E6 [2]	–	3.19
Vero E6 [14]	3.5	–

drug-induced phospholipidosis [%], A549-ACE2
Conditions	0.3 µM	0.833333 µM	3.33333 µM	6.66667 µM	10 µM	30 µM
24 h	-3.79	-6.82	-21.7	-22.6	-23.9	-27.5
48 h	2.58	-4.68	-11.7	-11.1	-10	-8.85
72 h	3.61	-1.19	-2.58	0.944	-0.898	–

Cc1cc(-c2ccc(CC(=O)Nc3ccc(-c4cccnc4)cc3)cc2)ccn1 [wnt-c59]
Conditions	drug sensitivity score	relative viability EC50 [µM]
Caco-2 [6]	–	> 10
Caco-2 [18]	0.6	–
Calu-3 [3]	–	> 10
Calu-3 [15]	0.5	–
HepG2 [4]	–	> 10
HepG2 [16]	0.3	–
U2OS [5]	–	> 10
U2OS [17]	0	–
Vero E6 [2]	–	> 10
Vero E6 [14]	0	–

cell viability [%]
Conditions	Caco-2 [13]	Calu-3 [10]	HepG2 [11]	U2OS [12]	Vero E6 [9]
1 nM	104	106	96.3	93.9	97.1
10 nM	94.8	106	110	93.6	101
100 nM	109	101	94.5	94.8	100
1000 nM	96.1	98	103	92.9	99.5
10000 nM	85	83.6	81.8	91.3	102

Cc1nc2n(c(=O)c1CCN1CCC(c3noc4cc(F)ccc34)CC1)CCCC2O (centres undefined) [paliperidone]
Conditions	drug sensitivity score	relative viability EC50 [µM]
Caco-2 [6]	–	> 10
Caco-2 [18]	0	–
Calu-3 [3]	–	> 10
Calu-3 [15]	0	–
HepG2 [4]	–	> 10
HepG2 [16]	0	–
U2OS [5]	–	> 10
U2OS [17]	0	–
Vero E6 [2]	–	> 10
Vero E6 [14]	0	–

cell viability [%]
Conditions	Caco-2 [13]	Calu-3 [10]	HepG2 [11]	U2OS [12]	Vero E6 [9]
1 nM	93.6	104	107	99.5	113
10 nM	106	104	104	103	106
100 nM	90.7	93.2	108	97	109
1000 nM	104	100	95	101	103
10000 nM	118	102	100	99.9	92.4

COc1cc(Br)c(S(=O)(=O)Nc2ccc(C(F)(F)F)c(O[C@@H]3CCN(C)C3)c2)cc1OC
Conditions	drug sensitivity score	relative viability EC50 [µM]
Caco-2 [6]	–	> 10
Caco-2 [18]	0	–
Calu-3 [3]	–	> 10
Calu-3 [15]	0	–
HepG2 [4]	–	> 10
HepG2 [16]	0	–
U2OS [5]	–	> 10
U2OS [17]	0	–
Vero E6 [2]	–	> 10
Vero E6 [14]	0	–

cell viability [%]
Conditions	Caco-2 [13]	Calu-3 [10]	HepG2 [11]	U2OS [12]	Vero E6 [9]
1 nM	102	103	85.4	105	91.5
10 nM	100	94.7	107	96.3	101
100 nM	101	99.3	93.3	95	99
1000 nM	95.9	98.1	96.7	98.3	103
10000 nM	95.9	104	91.2	96.6	94.9

CC(Oc1c(Cl)cccc1Cl)C1=NCCN1 (centres undefined) [lofexidine]
Conditions	drug sensitivity score	relative viability EC50 [µM]
Caco-2 [6]	–	> 10
Caco-2 [18]	0	–
Calu-3 [3]	–	> 10
Calu-3 [15]	0	–
HepG2 [4]	–	> 10
HepG2 [16]	0	–
U2OS [5]	–	> 10
U2OS [17]	0	–
Vero E6 [2]	–	> 10
Vero E6 [14]	0	–

cell viability [%]
Conditions	Caco-2 [13]	Calu-3 [10]	HepG2 [11]	U2OS [12]	Vero E6 [9]
1 nM	100	99.3	90.7	103	101
10 nM	106	108	105	106	101
100 nM	101	87.6	104	100	95.7
1000 nM	93.8	103	90.7	100	103
10000 nM	95.6	94.6	100	99.6	103
